Columns and labels:
[1] = system: AMPK signaling pathway; experiment: Western blot of AMPK signaling in H9C2 rat cardiomyocytes; format: cell-based; conditions: H9C2 cells; for activation of AMPK signaling pathway (phosphorylation of AMPK targets ACC (S79) and ULK1 (S555)): western blot, FIGS. 2A, 2B, 2F
Description: (§1) H9C2 rat cardiomyocyte cells were grown in DMEM media (ATCC #30-2002) supplemented with 10% FBS. Stock solutions of MJX series compounds were prepared in DMSO, while the stock solution of α-ketobutyrate was prepared in dH2O. Cells were seeded in the afternoon at 70-80% confluency and the next morning treated with the indicated concentrations of compounds for the indicated times. Cells were then washed with ice-cold PBS and immediately lysed on ice with RIPA buffer. Lysates were clarified at 18,000 g at 4° C., the supernatants transferred to new tubes, mixed with […] of 5×SDS-PAGE loading buffer, and heated for 10 minutes at 70° C. Lysates were then separated by SDS-PAGE using 4-12% Bis-Tris gels (Life Technologies) and transferred to PVDF membranes (Millipore) for western blotting analysis. All antibodies were purchased from Cell Signaling.

[2] = system: mTORC1; experiment: Western blot of mTORC1 signaling in H9C2 rat cardiomyocytes; format: cell-based; conditions: H9C2 cells, western blot, FIGS. 2A, 2B, 2C, 2F
Description: as §1

[3] = system: Caenorhabditis elegans; experiment: Lifespan of N2 wildtype C. elegans on NGM treatment plates containing compound; format: in vivo; set-up: mean lifespan: unit not given here; conditions: for % increase (mean lifespan): vs DMSO; for effect on C. elegans lifespan: FIGS. 1A-1C, result in words
Description: The anti-aging effects of MJX001-MJX005 were tested in the nematode Caenorhabditis elegans. Worms of the N2 wildtype strain of C. elegans were age-synchronized by performing either a timed egg lay or an egg preparation (mix <100 gravid worms in 70 μl M9 buffer, 25 μl bleach and 5 μl 10 N NaOH). Once the worms reached day 1 of adulthood, they were picked onto NGM treatment plates containing 1.5% dimethyl sulfoxide (DMSO; Sigma D8418), 49.5 μM 5-fluoro-2′-deoxyuridine (FUDR, Sigma F0503), and either […] (Sigma K401) or one of the MJX series test compounds. All plates were adjusted to pH 6.0 (i.e., the same pH as the control plates) if necessary by the addition of NaOH. Once dry, the plates were seeded with OP50 E. coli as the C. elegans food source. […] Worms were moved to new plates every 4 days. All worms were maintained in a single humidified, temperature-controlled incubator at 20° C. Lifespan curves were generated and statistical analyses performed.

[4] = system: C57BL/6 mice; experiment: Hair regrowth in shaved C57BL/6 mice, topical application; format: in vivo, mouse
Description: The effects of the compounds on mouse models were evaluated. […] Mouse dorsal hair was shaved by trimmer on week 7 and MJX002 was dissolved in Transdermal Gel at 16 mM and applied on the dorsal skin every other day. Mice were monitored for the appearance of skin pigmentation, which signals the initiation of anagen. […] (FIG. 7)

[5] = system: H9C2 Cells; experiment: [U-13C6]glucose tracing of metabolites in H9C2 cells (LC-MS); format: cell-based, rat; conditions: 24 h, FIG. 4
Description: To evaluate the metabolic pathways in use, H9C2 Cells were cultured with designated compounds and medium containing [U-^13C6]glucose for 24 h. Metabolites were extracted for LC-MS detection.

[6] = 1 mM, FIG. 1C experiment, DMSO control 14.8
[7] = 2 mM, FIG. 1C experiment, DMSO control 14.8
[8] = 4 mM, FIG. 1C experiment, DMSO control 14.8

Row | Structure (SMILES) | activation of AMPK signaling pathway (phosphorylation of AMPK targets ACC (S79) and ULK1 (S555)) [1] | mTORC1 signaling (phosphorylation of mTORC1 targets S6K (T389), 4E-BP1 (S65), ULK1 (S757)) [2] | mean lifespan [3, 6] | % increase (mean lifespan) ([3]; 1 mM, FIG. 1C experiment) [%] | mean lifespan [3, 7] | % increase (mean lifespan) ([3]; 2 mM, FIG. 1C experiment) [%] | mean lifespan [3, 8] | % increase (mean lifespan) ([3]; 4 mM, FIG. 1C experiment) [%] | effect on C. elegans lifespan [3] | also measured
1 | C/C=C(\OC(C)=O)C(=O)OCC [MJX001] | activate the AMPK signaling pathway | no significant effect | 12.9 | −12.9 | 11.5 | −22.4 | 11.1 | −24.8 | decreased C. elegans lifespan | –
2 | CCOC(=O)C(CC)(OCC)OC(C)=O (stereo not drawn) [MJX002] | activate the AMPK signaling pathway | no significant effect | – | – | – | – | – | – | dose-dependent increases in lifespan | hair regrowth ([4]; 6 week old C57BL/6 mice, 16 mM in Transdermal Gel on dorsal skin every other day): stimulates hair regrowth; skin pigmentation and hair growth ([4]; C57BL/6 mice, 16 mM topical every other day, after 40 days, FIG. 7): accelerated pigmentation and hair growth; mean lifespan ([3]; 100 μM, FIG. 1A experiment, DMSO control 11.7): 11.9; % increase (mean lifespan) ([3]; 100 μM, FIG. 1A experiment): 1.9%; mean lifespan ([3]; 300 μM, FIG. 1A experiment, DMSO control 11.7): 13.2; % increase (mean lifespan) ([3]; 300 μM, FIG. 1A experiment): 13.0%; mean lifespan ([3]; 1 mM, FIG. 1A experiment, DMSO control 11.7): 12.2; % increase (mean lifespan) ([3]; 1 mM, FIG. 1A experiment): 4.2%; mean lifespan ([3]; 4 mM, FIG. 1A experiment, DMSO control 11.7): 16.4; % increase (mean lifespan) ([3]; 4 mM, FIG. 1A experiment): 40.0%; M2 citrate using [U-13C6]glucose as a tracer [5]: decreased M2 citrate
3 | C/C=C1\OC(C)OC1=O (stereo not drawn) [MJX003] | activate the AMPK signaling pathway | no significant effect | 14.8 | −0.2 | 12.5 | −15.3 | 12.9 | −12.7 | decreased C. elegans lifespan | phosphorylation of T172 in AMPK ([1]; FIG. 2A): Increased phosphorylation

From US11524948B2, “Prodrugs of alpha-ketoglutarate, alpha-ketobutyrate, alpha-ketoisovalerate, and alpha-ketoisohexanoate, and uses thereof” (The Regents of the University of California, priority 2018, dated 2022)
